Data as given in patent US12441730B2, “PRMT5 inhibitors” (Merck Sharp & Dohme LLC, priority 2019, dated 2025).
Like-named read-outs stand apart in the source and are kept apart here.

Tests used:
[1] = molecular target: T1, Full-length (FL)-PRMT5-MEP50 enzyme complex (Homo sapiens, UniProt O14744); assay: PRMT5-MEP50 Enzyme Methylation Assay (Version B); type: biochemical
T1 construct: Full-length (FL)-PRMT5-MEP50 enzyme complex (recombinant proteins from baculovirus-transfected Sf21 cells: FL-PRMT5; MW=73837 kDa and FL-MEP50; MW=38614); made in house; host or cells: baculovirus-transfected Sf21 cells
Procedure: PRMT5-MEP50 Enzyme Methylation Assay (Version B)
PRMT5/MEP50 biochemical assay is a direct measurement of the methylation activity of the enzyme complex on a short peptide substrate derived from the N-terminus of H4 histone. Methylation experiment was performed with recombinant protein. The assessment of inhibitory effect (IC50) of small molecules was measured by the effectiveness of the compounds to inhibit this reaction.
In this assay, the potency (IC50) of each compound was determined from a twenty-point (1:2 serial dilution; top compound concentration of 100000 nM) titration curve using the following outlined procedure. To each well of a white ProxiPlus 384 well-plate, 100 nL of compound (1% DMSO in final assay volume of 10 μL) was dispensed, followed by the addition of 8 μL of 1× assay buffer (50 mM Bicine pH 8.0, 1 mM DTT, 0.004% Tween20, 0.01% BSA) containing 0.5 nM of Full-length (FL)-PRMT5-MEP50 enzyme complex (recombinant proteins from baculovirus-transfected Sf21 cells: FL-PRMT5; MW=[…] and FL-MEP50; MW=38614). Plates were sealed and placed in a 37° C. humidified chamber for 30 minutes pre-incubation with compounds. Subsequently, each reaction was initiated by the addition of 2 μL 1× assay buffer containing 75 nM biotinylated H4R3 (Me1) peptide, and 15 μM S-(5′-Adenosyl)-L-Methionine Chloride (SAM). The final reaction in each well of 10 μL consists of 0.5 nM PRMT5-MEP50, 75 nM biotinylated-peptide, and 15 μM SAM. Methylation reactions were allowed to proceed for 150 minutes in a sealed plate at 37° C. Reactions were immediately quenched by the addition of 1 μL of 10% formic acid. Plates were then frozen and shipped to SAMDI™ Tech Inc. to determine the percent conversion from […]. EC50 values were determined by non-linear regression according to models for either sigmoidal (4 parameters) or biphasic (7 parameters) dose-response curves.

[2] = system: symmetric dimethylation of arginine (SDMA) of PRMT5 substrates in MCF-7 cells; assay: PRMT5 Cell Target Engagement (TE) Assay; type: cell-based; settings: 3 days treatment, SDMA high content imaging
How it was run: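 Readout is single-cell nuclear symmetric-dimethylarginine immunofluorescence (Alexa488), normalized to DMSO-treated cells. Compounds were applied to MCF-7 cells for 3 days at 37 °C, top concentration 10000 nM in 1:3 steps over ten points; curves fitted with 4-parameter robust fit.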

[3] = second value of 7 parameter biphasic fit, read-out: Enzyme Methylation Assay Version B (EC50 2)
[4] = single EC50 = 4 parameter single site sigmoidal fit, EC50 1 = first value of 7 parameter biphasic fit, read-out: Enzyme Methylation Assay Version B (EC50 or EC50 1)

T1 sequence (O14744 whole entry): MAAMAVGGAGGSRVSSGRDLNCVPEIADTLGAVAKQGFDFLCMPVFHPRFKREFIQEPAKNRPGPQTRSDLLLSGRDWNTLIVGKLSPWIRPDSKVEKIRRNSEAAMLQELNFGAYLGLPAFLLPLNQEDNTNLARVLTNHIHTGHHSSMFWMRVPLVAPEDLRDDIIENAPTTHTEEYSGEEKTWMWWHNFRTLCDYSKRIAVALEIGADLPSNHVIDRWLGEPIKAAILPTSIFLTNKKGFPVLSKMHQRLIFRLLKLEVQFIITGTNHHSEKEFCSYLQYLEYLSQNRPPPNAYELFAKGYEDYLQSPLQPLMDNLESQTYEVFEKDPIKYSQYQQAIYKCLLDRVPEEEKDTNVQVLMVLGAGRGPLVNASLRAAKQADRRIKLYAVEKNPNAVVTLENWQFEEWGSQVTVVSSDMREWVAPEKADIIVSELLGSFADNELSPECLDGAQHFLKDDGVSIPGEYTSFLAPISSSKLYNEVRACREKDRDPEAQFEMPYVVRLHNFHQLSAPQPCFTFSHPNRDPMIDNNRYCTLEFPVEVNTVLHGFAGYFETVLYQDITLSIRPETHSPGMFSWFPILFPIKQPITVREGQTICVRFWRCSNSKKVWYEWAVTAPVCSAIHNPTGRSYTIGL
T1 sequence (Q9BQA1 whole entry partner): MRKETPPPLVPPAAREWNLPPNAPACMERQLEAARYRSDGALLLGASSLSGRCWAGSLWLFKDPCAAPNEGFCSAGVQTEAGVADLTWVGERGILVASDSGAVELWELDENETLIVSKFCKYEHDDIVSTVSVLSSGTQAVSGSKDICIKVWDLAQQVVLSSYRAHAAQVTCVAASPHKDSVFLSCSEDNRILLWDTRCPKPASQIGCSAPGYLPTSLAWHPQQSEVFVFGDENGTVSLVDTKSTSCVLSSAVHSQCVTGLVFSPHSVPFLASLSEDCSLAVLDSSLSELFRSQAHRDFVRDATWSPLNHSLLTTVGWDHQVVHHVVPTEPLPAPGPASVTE

Row | EC50 [1, 3] [nM] | EC50 [1, 4] [nM] | EC50 ([2]; Homo sapiens, MCF7, 72 h) [nM] | SMILES | EC50 [2] [nM]
1 | 1070 | 3.11 | – | CC(=O)N1CCC(Nc2cc(C(=O)N3CCC4(Cc5ccccc5CN4)C(O)C3)ncn2)CC1 (single isomer, unassigned) [Example 93, A diastereomer of 1-[4-({6-[(3′-hydroxy-1,4-dihydro-1′H,2H-spiro[isoquinoline-3,4′-piperidin]-1′-yl)carbonyl]-4-pyrimidinyl}amino)-1-piperidinyl]ethanone] | 27.3
2 | 34300 | 19.7 | – | CC(=O)N1CCC(Nc2cc(C(=O)N3CC[C@]4(Cc5ccccc5CN4)[C@H](O)C3)ccn2)C(F)(F)C1 (single isomer, unassigned) [Example 96, 1—((S or R)-3,3-difluoro-4-((4-((3R,3′R)-3′-hydroxy-1,4-dihydro-2H-spiro[isoquinoline-3,4′-piperidine]-1′-carbonyl)pyridin-2-yl)amino)piperidin-1-yl)ethan-1-one] | 767
3 | 7410 | 4.54 | – | CC(=O)N1CCC(Nc2cc(C(=O)N3CC[C@]4(Cc5ccccc5CN4)[C@H](O)C3)ccn2)C(F)(F)C1 (single isomer, unassigned) [Example 97, 1—((S or R)-3,3-difluoro-4-((4-((3R,3′R)-3′-hydroxy-1,4-dihydro-2H-spiro[isoquinoline-3,4′-piperidine]-1′-carbonyl)pyridin-2-yl)amino)piperidin-1-yl)ethan-1-one] | 216
4 | 1530 | 2.63 | 55.9 | CC(=O)N1CCC(Nc2cc(C(=O)N3CC[C@]4(Cc5ccccc5CN4)[C@H](O)C3)c(Cl)cn2)CC1 [Example 4, 11-(4-((5-chloro-4-((3R,3’R)-3′-hydroxy-1,4-dihydro-2H-spiro[isoquinoline-3,4′-piperidine]-1′-carbonyl)pyridin-2-yl)amino)piperidin-1-yl)ethan-1-one] | –
5 | 1110 | 5.18 | 38.6 | CC(=O)N1CCC(Nc2cc(C(=O)N3CC[C@]4(Cc5ccccc5CN4)[C@H](O)C3)c(F)cn2)CC1 [Example 5, 1-(4-((5-fluoro-4-((3R,3’R)-3′-hydroxy-1,4-dihydro-2H-spiro[isoquinoline-3,4′-piperidine]-1′-carbonyl)pyridin-2-yl)amino)piperidin-1-yl)ethan-1-one] | –
6 | 5550 | 6.21 | 488 | CC(=O)N1CCC(Nc2cc(C(=O)N3CCC4(CC3)Cc3ccc(Cl)cc3CN4)ncn2)CC1 [Example 53, 1-(4-{[6-(7-chloro-1,4-dihydro-1′H,2H-spiro[isoquinoline-3,4′-piperidine]-1′-carbonyl)pyrimidin-4-yl]amino}piperidin-1-yl)ethan-1-one] | –
7 | 8710 | 3.31 | 53 | O=C(c1ccc(-c2ncnn2C2CC2)cc1Cl)N1CC[C@]2(Cc3ccccc3CN2)[C@H](O)C1 [Example 110, (2-chloro-4-(1-cyclopropyl-1H-1,2,4-triazol-5-yl)phenyl)((3R,3′R)-3′-hydroxy-1,4-dihydro-2H-spiro[isoquinoline-3,4′-piperidin]-1′-yl)methanone] | –
8 | 15000 | 15.1 | 7550 | CCOc1nc(Cl)ccc1C(=O)N1CCC2(CC1)Cc1ccccc1CN2 [Example 114, (6-chloro-2-ethoxypyridin-3-yl)(1,4-dihydro-1′H,2H-spiro[isoquinoline-3,4′-piperidin]-1′-yl)methanone] | –
9 | ≥ 100000 | 807 | ≥ 10000 | O=C(c1ccc(C(F)(F)F)nc1Cl)N1CCC2(CC1)Cc1ccccc1CN2 [Example 116, [2-chloro-6-(trifluoromethyl)pyridin-3-yl](1,4-dihydro-1′H,2H-spiro[isoquinoline-3,4′-piperidin]-1′-yl)methanone] | –
10 | 8840 | 13.3 | 797 | CC(=O)N1CCC(Nc2cc(C(=O)N3CCC4(CC3)Cc3ccccc3CN4)ccn2)CC1 [Example 174, 1-(4-((4-(1,4-dihydro-2H-spiro[isoquinoline-3,4′-piperidine]-1′-carbonyl)pyridin-2-yl)amino)piperidin-1-yl)ethan-1-one] | –

Continued, compound first:

Row | SMILES | EC50 [1, 3] [nM] | EC50 [1, 4] [nM] | EC50 ([2]; Homo sapiens, MCF7, 72 h) [nM] | EC50 [2] [nM]
11 | O=C(c1ccc(C(=O)N2C3CCC2COC3)cc1)N1CCC2(Cc3ccccc3CN2)C(O)C1 (single isomer, unassigned) [Example 149, (3′-hydroxy-1,4-dihydro-1′H,2H-spiro[isoquinoline-3,4′-piperidin]-1′ -yl)[4-(3-oxa-8-azabicyclo[3.2.1]oct-8-ylcarbonyl)phenyl]methanone] | ≥ 100000 | 298 | – | 9840
12 | O=C(c1ccc(C(=O)N2C3CCC2COC3)cc1)N1CCC2(Cc3ccccc3CN2)C(O)C1 (single isomer, unassigned) [Example 150, (3′-hydroxy-1,4-dihydro-1′H,2H-spiro[isoquinoline-3,4′-piperidin]-1′-yl)[4-(3-oxa-8-azabicyclo[3.2.1]oct-8-ylcarbonyl)phenyl]methanone] | 1840 | 5.61 | – | 246
13 | O=C(c1ccc(C(=O)N2C3CCC2COC3)cc1)N1CCC2(Cc3ccccc3CN2)C(O)C1 (single isomer, unassigned) [Example 151, (3′-hydroxy-1,4-dihydro-1′H,2H-spiro[isoquinoline-3,4′-piperidin]-1′-yl)[4-(3-oxa-8-azabicyclo[3.2.1]oct-8-ylcarbonyl)phenyl]methanone] | – | 882 | – | 4180
14 | O=C(c1ccc(C(=O)N2C3CCC2COC3)cc1)N1CCC2(Cc3ccccc3CN2)C(O)C1 (single isomer, unassigned) [Example 152, (3′-hydroxy-1,4-dihydro-1′H,2H-spiro[isoquinoline-3,4′-piperidin]-1′-yl)[4-(3-oxa-8-azabicyclo[3.2.1]oct-8-ylcarbonyl)phenyl]methanone] | 335 | 1.2 | – | 27.7
15 | CCOc1cc(C(=O)N2C3CCC2COC3)ccc1C(=O)N1CCC2(CC1)Cc1ccc(Cl)cc1CN2 [Example 52, [4-(7-chloro-1,4-dihydro-1H,2H-spiro[isoquinoline-3,4′-piperidine]-1′-carbonyl)-3-ethoxyphenyl](3-oxa-8-azabicyclo[3.2.l]octan-8-yl)methanone] | 2250 | 6.71 | 87.7 | –
16 | CCOc1nc(C(F)(F)F)ccc1C(=O)N1CCC2(CC1)Cc1ccccc1CN2 [Example 115, (1,4-dihydro-1′H,2H-spiro[isoquinoline-3,4′-piperidin]-1′-yl)[2-ethoxy-6-(trifluoromethyl)pyridin-3-yl]methanone] | 55000 | 86.3 | ≥ 10000 | –
17 | Cn1ncnc1-c1ccc(C(=O)N2CCC3(CC2)Cc2ccccc2CN3)cc1 [Example 117, (1,4-dihydro-1′H,2H-spiro[isoquinoline-3,4′-piperidin]-1′-yl)[4-(1-methyl-1H-1,2,4-triazol-5-yl)phenyl]methanone] | ≥ 100000 | 690 | ≥ 10000 | –
18 | O=C(c1ccc(-c2nnc(C3CC3)o2)cc1)N1CCC2(CC1)Cc1ccccc1CN2 [Example 118, [4-(5-cyclopropyl-1,3,4-oxadiazol-2-yl)phenyl](1,4-dihydro-1′H,2H-spiro[isoquinoline-3,4′-piperidin]-1′-yl)methanone] | ≥ 100000 | 510 | ≥ 10000 | –
19 | CCOc1cc(C(=O)N2C3CCC2COC3)ccc1C(=O)N1CCC2(CC1)Cc1ccccc1CN2 [Example 172, (4-(3-oxa-8-azabicyclo[3.2.1]octane-8-carbonyl)-2-ethoxyphenyl)(1,4-dihydro-2H-spiro[isoquinoline-3,4′-piperidin]-1′-yl)methanone] | 1940 | 5.42 | 88.9 | –
20 | O=C(c1ccc(C(=O)N2C3CCC2COC3)cc1)N1CCC2(CC1)Cc1ccccc1CN2 [Example 173, (4-(3-oxa-8-azabicyclo[3.2.1]octane-8-carbonyl)phenyl)(1,4-dihydro-2H-spiro[isoquinoline-3,4′-piperidin]-1′-yl)methanone] | 14400 | 32.3 | 5310 | –
